Values after ≈ are worked out from the molar mass of the structure shown. “Also recorded” adds a separate entry of the source. Marks after values point to notes of the source that are not given here.
Key:
B. subtilis DSM 10 = assay: MIC against bacteria (antimicrobial assay); format: cell-based, Bacillus subtilis
Description: (§1) The antimicrobial activities of compounds 1–7 (Acp A–G) were assessed against different bacterial and fungal strains in addition to their cytotoxic effects on two mammalian cell lines. The tested microorganisms comprised a diverse array of clinically relevant pathogens, encompassing sensitive indicator strains. Among the Gram-positive bacteria were Bacillus subtilis, Staphylococcus aureus, and Mycolicibacterium smegmatis. Gram-negative bacteria included Acinetobacter baumannii, Chromobacterium violaceum, Escherichia coli, and Pseudomonas aeruginosa. Additionally, filamentous fungi such as Mucor hiemalis and yeasts including Candida albicans, Wickerhamomyces anomalus, Rhodotorula glutinis, and Schizosaccharomyces pombe were included. Generally, all compounds presented similar biological properties, summarized in weak or no activity against fungal pathogens as well as weak to moderate inhibition of Gram-positive bacteria (Table 2).
(§2) The antimicrobial and cytotoxic assays were performed according to the methods reported previously.[57]

S. aureus DSM 346 = assay: MIC against bacteria (antimicrobial assay); format: cell-based, Staphylococcus aureus; conditions: for MIC: Staphylococcus aureus, DSM346, DSM 346, – = no activity observed under test conditions
Description: as §1, §2

S. aureus DSM 1104 = assay: MIC against bacteria (antimicrobial assay); format: cell-based, Staphylococcus aureus
Source text: The tested microorganisms comprised a diverse array of clinically relevant pathogens, encompassing sensitive indicator strains. Among the Gram-positive bacteria were Bacillus subtilis, Staphylococcus aureus, and Mycolicibacterium smegmatis. Gram-negative bacteria included Acinetobacter baumannii, Chromobacterium violaceum, Escherichia coli, and Pseudomonas aeruginosa. Additionally, filamentous fungi such as Mucor hiemalis and yeasts including Candida albicans, Wickerhamomyces anomalus, Rhodotorula glutinis, and Schizosaccharomyces pombe were included.
as §2

S. pombe DSM 70572 = assay: MIC against fungi (antimicrobial assay); format: cell-based, Schizosaccharomyces pombe
Description: as §1, §2

C. albicans DSM 1665 = assay: MIC against fungi (antimicrobial assay); format: cell-based, Candida albicans
Description: as §1, §2

M. hiemalis DSM 2656 = assay: MIC against fungi (antimicrobial assay); format: cell-based, Mucor hiemalis
Description: as §1, §2

KB-3-1 (ACC 158) = assay: Cytotoxicity against mammalian cell lines; format: cell-based; conditions: Homo sapiens, KB 3-1; ACC 158; – = no activity observed under test conditions; read-out: IC50 against mammalian cell lines, KB-3-1
Description: as §1, §2

L929 (ACC 2) = assay: Cytotoxicity against mammalian cell lines; format: cell-based; conditions: Mus musculus, L929; ACC 2; – = no activity observed under test conditions; read-out: IC50 against mammalian cell lines, L929
Description: as §1, §2

[1] = tested on: preformed biofilms of S. aureus DSM 1104; assay: Disruption of preformed biofilms, crystal violet assay; format: cell-based, Staphylococcus aureus
Description: Therefore, Acp A–G were evaluated against preformed biofilms of S. aureus using crystal violet staining.[47]
Cultures of S. aureus DSM 1104 were prepared by inoculating 1 mL aliquots from a frozen stock (−20 °C) into 25 mL of CASO medium and incubating them overnight at 37 °C with shaking at 130 rpm.
The crystal violet assay was performed according to a previously reported procedure.[47] Arcopilins A–G were tested in serial dilutions (250–2 μg/mL), with methanol and microporenic acid A (MAA) as negative and positive controls, respectively. Statistical differences between samples and the controls were determined using a two-tailed Student’s t test, with statistical significance defined as p < 0.01. Statistical analysis was carried out using GraphPad Prism 9 (GraphPad Software, San Diego, CA).[58]

[2] = tested on: preformed biofilm cells of S. aureus DSM 1104; assay: XTT assay, metabolic activity in preformed biofilm cells; format: cell-based, Staphylococcus aureus; conditions: 24 h treatment
Description: The seed culture of S. aureus DSM 1104 was prepared as previously described, and its OD600 was adjusted to match the turbidity of a 0.001 McFarland standard. Next, 150 μL of this bacterial solution in CASO with 4% glucose broth was incubated in 96-well tissue plates (TPP tissue culture ref no. 92196, Switzerland) for 24 h at 150 rpm. After incubation, the supernatant was discarded and 150 μL of the fresh media was added to the wells, along with serially diluted arcopilin A (31.3–0.5 μg/mL). The plate was further incubated for 24 h. Afterward, XTT (Cell profile XTT kit, Roche, Switzerland) was prepared in phosphate-buffered saline (PBS) at a final concentration of 0.3 mg/mL. The plate was washed three times with PBS buffer, and then, 150 μL of the prepared XTT solution was added to each well. Plates were further incubated for an additional 4 h at 37 °C while shaking (150 rpm), and absorbance was measured at 490 nm using a plate reader (Synergy 2, BioTek, Santa Clara). Methanol (2.5%) was used as the solvent control. Error bars indicate the standard deviation (SD) of duplicate with two repeats.

[3] = tested on: planktonic cells of S. aureus DSM 1104; assay: Checkerboard broth dilution assay (FICI); format: cell-based, Staphylococcus aureus; conditions: for MIC: Staphylococcus aureus, DSM1104, compound alone, read-out: MIC of each single compound (MICs)
Source text: After assessing the effects of Acp A on the pathogen S. aureus, we delved deeper into the interaction of Acp A with established antibiotics (GM and Vac). This exploration focused on both planktonic cells and preformed biofilms of S. aureus. Consequently, we used a checkerboard assay to determine the fractional inhibitory concentration index (FICI) for combinations involving Acp A, GM, or Vac based on both their MIC values in combination.[49]
The interaction between arcopilin A, vancomycin, and gentamicin against S. aureus DSM 1104 was evaluated using a checkerboard broth dilution method to determine the fractional inhibitory concentration indices (FICIs), calculated as FIC = MIC of drug A in combination/MIC of drug A alone + MIC of drug B in combination/MIC of drug B alone.[59] The FICIs were interpreted as synergistic (FICI ≤ 0.5). For this assay, a seed culture was prepared as previously described to inoculate fresh CASO with 4% glucose broth to match the turbidity of a 0.1 McFarland standard suspension. Then, 100 μL of bacterial suspension was distributed in 96-well nontissue microtiter plates (TPP nontissue culture ref no. 92197, Switzerland). Arcopilin A (7.8–2 μg/mL) and antibiotics (vancomycin and gentamicin: 31.3–0.016 μg/mL) were added in increasing concentrations in columns and rows, respectively. The experiments were conducted in duplicate.

C. violaceum DSM 30191 = assay: MIC against bacteria (antimicrobial assay); format: cell-based; conditions: Chromobacterium violaceum, DSM30191, – = no activity observed under test conditions
Description: as §1, §2

E. coli DSM 1116 = assay: MIC against bacteria (antimicrobial assay); format: cell-based; conditions: Escherichia coli, DSM1116, – = no activity observed under test conditions
Description: as §1, §2

[4] = tested on: preformed biofilms of S. aureus DSM 1104; assay: CFU count analysis, synergistic effects on preformed biofilms; format: cell-based, Staphylococcus aureus; conditions: Acp A 7.8–3.9 μg/mL, GM 7.8–2 μg/mL, Vac 15.6–3.9 μg/mL
Description: The seed culture of S. aureus DSM 1104 was prepared as previously described, and the OD600 was adjusted to match the turbidity of a 0.001 McFarland standard. Then, 150 μL of bacterial solution in CASO with 4% glucose broth was incubated in 96-well tissue plates (TPP tissue culture ref no. 92196, Switzerland) for 24 h at 150 rpm. […] Methanol (2.5%) was used as the solvent control. The plates were incubated for a further 24 h at 37 °C. Colony-forming unit (CFU) count analysis of arcopilin A, antibiotics (vancomycin and gentamicin), and their combinations was performed as previously described.[58] Cells were suspended in the well 50 times. Dilution series in 1 to 10 steps (20 μL in 200 μL) were prepared down to a final dilution level of 10^–6, and 100 μL of this last dilution was platted on LB agar plates using 3 mm small glass beads (5 to 10, Omnilab, Germany) to homogeneously spread the liquid. Individual colonies on agar plates were counted after incubation at 30 °C for 24 and 48 h.[60] Afterward, CFUs were calculated by considering the dilution factors. Error bars indicate the SD of duplicate with two repeats.

W. anomalus DSM 6766 = assay: MIC against fungi (antimicrobial assay); format: cell-based, Wickerhamomyces anomalus; conditions: – = no activity observed under test conditions
Description: as §1, §2

R. glutinis DSM 10134 = assay: MIC against fungi (antimicrobial assay); format: cell-based, Rhodotorula glutinis; conditions: – = no activity observed under test conditions
Description: as §1, §2

[5] = supplement CSV, decimal comma, unit not given, in µg/mL

CC(=O)[C@H](C)C[C@@H](C)C[C@H](C)C(=O)C1=C(O)/C(=C/c2ccccc2)NC1=O [Acp A, Arcopilin A]
MIC (B. subtilis DSM 10; Bacillus subtilis, DSM10, DSM 10, – = no activity observed under test conditions): 66.7 µg/mL (≈ 181 µM) | MIC B. subtilis (B. subtilis DSM 10; [5]): 66,7 | MIC (S. aureus DSM 346): 66.7 µg/mL (≈ 181 µM) | MIC S. aureus (S. aureus DSM 346; supplement CSV, S. aureus, decimal comma, unit not given, in µg/mL): 66,7 | MIC (S. aureus DSM 1104; Staphylococcus aureus, DSM1104, DSM 1104): 31.3 µg/mL (≈ 84.7 µM) | MIC S. aureus (S. aureus DSM 1104; supplement CSV, second S. aureus column (value matches DSM 1104 of Table 2), decimal comma, unit not given, in µg/mL): 31,3 | MIC (S. pombe DSM 70572; Schizosaccharomyces pombe, DSM70572, DSM 70572, – = no activity observed under test conditions): 66.7 µg/mL (≈ 181 µM) | MIC S. pombe (S. pombe DSM 70572; [5]): 66,7 | MIC (C. albicans DSM 1665; Candida albicans, DSM1665, DSM 1665, – = no activity observed under test conditions): 66.7 µg/mL (≈ 181 µM) | MIC C. albicans (C. albicans DSM 1665; [5]): 66,7 | MIC (M. hiemalis DSM 2656; Mucor hiemalis, DSM2656, DSM 2656, – = no activity observed under test conditions): 66.7 µg/mL (≈ 181 µM) | MIC M. hiemalis (M. hiemalis DSM 2656; [5]): 66,7 | IC50 (KB-3-1 (ACC 158)): 8.9 µg/mL (≈ 24.1 µM) | IC50 (L929 (ACC 2)): 14 µg/mL (≈ 37.9 µM) | efficacy toward preformed biofilms ([1]; at 3.9 μg/mL): 35–45% | efficacy toward preformed biofilms ([1]; concentration range 15.6 to 250 μg/mL): 50–60% | disrupting effect on preformed biofilms (in words) ([1]; tested 250–2 μg/mL): most promising disrupting effects; also recorded: remarkable effectiveness | lowest concentration with significant reduction in metabolic activity [2]: 3.9 µg/mL | MIC [3]: 31.3 µg/mL | decrease of the MIC value when combined with each antibiotic ([3]; combined with GM or Vac): ~10 fold

CNC(C)C1CCC(N)C(OC2C(N)CC(N)C(OC3OCC(C)(O)C(NC)C3O)C2O)O1 (stereo not drawn) [Gentamicin]
MIC (S. aureus DSM 346): 0.4 µg/mL (≈ 0.838 µM) | MIC (C. violaceum DSM 30191): 0.42 µg/mL (≈ 0.879 µM) | MIC (E. coli DSM 1116): 1.7 µg/mL (≈ 3.56 µM) | increase of the potency of the antibiotic in combination with Acp A ([3]; Acp A 3.9 μg/mL, MIC alone versus in combination): up to 115 fold | FICI, Acp A and GM ([3]; FICI < 0.5: synergistic, value belongs to the combination): < 0.5 | MIC [3]: 15.6 µg/mL | MIC in combination (MICc), Acp A and GM ([3]; combination of Acp A (3.9 μg/mL) with GM): 0.13 µg/mL | improvement in the inhibitory effects in combination with Acp A [4]: ~3 fold

C[C@@H]1[C@H](O)[C@@H](C)/C=C/C=C/CC/C=C/C=C/C=C/C=C/C(O[C@H]2O[C@H](C)[C@@H](O)[C@H](N)[C@@H]2O)CC2O[C@](O)(CC(O)C(O)CCC(O)CC(O)CC(O)CC(=O)O[C@H]1C)CC(O)C2C(=O)O (stereo partly drawn) [Nystatin, reference compound]
MIC against fungi, W. anomalus (W. anomalus DSM 6766): 8.3^e μg/mL | MIC against fungi, S. pombe (S. pombe DSM 70572; DSM 70572, – = no activity observed under test conditions): 4.2^e μg/mL | MIC against fungi, C. albicans (C. albicans DSM 1665; DSM 1665, – = no activity observed under test conditions): 8.3^e μg/mL | MIC against fungi, M. hiemalis (M. hiemalis DSM 2656; DSM 2656, – = no activity observed under test conditions): 8.3^e μg/mL | MIC against fungi, R. glutinis (R. glutinis DSM 10134): 4.2^e μg/mL
